Test results: US7026281B1, “Antagonistic analogs of GH-RH inhibiting IGF-I and -II” (The Administrators of the Tulane Educational Fund, priority 1998, dated 2006)
Marks after values point to notes of the source that are not given here.

How the values were obtained:
[1] = system: PC-3 human prostate cancer xenografts; assay: PC-3 human prostate cancer xenografts in nude mice; assay type: in vivo; details: 20 μg daily s.c., 21 days
Experimental: Male nude mice were implanted s.c. with 3 mm^3 pieces of PC-3 human hormone-independent prostate cancer tissue into both flanks. When tumors reached a volume of approx. 40–50 mm^3 the mice were divided into 3 experimental groups. The first and second groups were treated with peptides Peptide 3 and MZ-5-156, respectively, in single daily s.c. injections of 20 μg for 21 days, while the third group served as control. Tumor volumes were measured at weekly intervals, tumor weights were measured at the end of experiment.

[2] = system: HT-29 human colon cancers; assay: HT-29 human colon cancer xenografts in nude mice; assay type: in vivo; details: 20 μg daily sc., 6 weeks
Experimental: HT-29 human colon cancers were transplanted sc. into male nude mice. 19 days after transplantation, the mice were divided into groups of 10 animals each, and the treatment was started. The mice received single daily injections of various GH-RH antagonists sc. at 20 μg dose per day for 6 weeks. Tumors were measured regularly, and tumor volume was calculated. The mice were sacrificed at the end of experiment and tumor weights were measured.

[3] = system: mammary (MDA-MB-468, ZR-75-1), prostatic (PC-3 and DU-145), and pancreatic (MiaPaCa-2, SW-1990 and Capan-2) cancer cell lines; details: MDA-MB-468, ZR-75-1, PC-3, DU-145, MiaPaCa-2, SW-1990, Capan-2; cited from earlier work
[4] = system: MDA-MB-468 human breast cancer xenografts; assay: MDA-MB-468 human breast cancer xenografts in nude mice; assay type: in vivo; details: 20 μg daily s.c., 5 weeks
Experimental: Nude mice bearing MDA-MB-468 hormone-independent human breast cancer xenografts were divided into groups of 10 animals each. The treated groups received single daily s.c. injections of 20 μg of GH-RH antagonists. One group was treated with Peptide 1, a second group was treated with MZ-5-156 for comparison. The control group was injected with the vehicle solvent. The treatment was continued for 5 weeks. Tumors were measured once a week and tumor volume was calculated. The mice were sacrificed at the end of experiment and tumor weights were measured.

[5] = system: Estrogen independent MXT mouse mammary tumors; assay: MXT mouse mammary tumors in BDF mice; assay type: in vivo; details: 20 μg per day
Experimental: Estrogen independent MXT tumors were transplanted sc. to female BDF mice. One day after transplantation, the mice were divided into groups of 10 animals each, and the treatment was started. The mice in groups 1, 2, 3, and 4 received single injections daily of various GH-RH antagonists sc. at 20 μg dose per day for 18 days. In groups 5 and 6, the peptides were administered by Alzet osmotic pumps releasing a daily amount of 20 μg peptide. Tumors were measured regularly, and tumor volume was calculated. The mice were sacrificed on day 18 and tumor weights were measured.

IGF-II = details: same cancer cell lines in vitro; cited from earlier work

With “[PhAc^0, D-Arg^2, Abu^15, Nle^27]hGH-RH(1–28) Agm [MZ-5-156, reference compound]” the “Inhibition in tumor volume” value [1] was 52%, the “Inhibition in tumor weight” value [1] was 46% and the “Final tumor volume (mm^3)” value ([1]; nude mice) was 148.9 ± 41 mm^3. For the same substance, the “Tumor weight” value ([1]; nude mice) was 104.3 ± 27.2 mg, the “Inhibitory effect on HT-29 human colon cancers (in words)” value [2] was “equally strong inhibitory effect” and the “Final tumor volume (mm^3)” value ([2]; nude mice) was 908 ± 195* mm^3. The “Tumor weight” value ([2]; nude mice) was 1012 ± 174 mg, the “Rate of proliferation of cancer cell lines in vitro” value [3] was “significantly inhibited” and the “Final tumor volume (mm^3)” value ([4]; nude mice) was 104.4 ± 32.2** mm^3. For the same substance, the “Tumor weight” value ([4]; nude mice) was 77.7 ± 31.7 mg, the “Number of regressed tumors” value ([4]; groups of 10) was 3 and the “Inhibitory effect on MXT mouse mammary cancers (in words)” value ([5]; 18 days) was “significant inhibition of tumor growth”. The “Tumor volume (mm^3) On day 14” value ([5]; single daily sc. injections) was 2717 ± 773 mm^3, the “Tumor volume (mm^3) On day 18” value ([5]; single daily sc. injections) was 5368 ± 408* mm^3 and the “Tumor weights” value ([5]; single daily sc. injections, day 18) was 4885 ± 480 mg. The “Number of surviving mice” value ([5]; single daily sc. injections, groups of 10) was 4 and the “Expression of IGF-II mRNA in the cells and concentration of IGF-II secreted into the culture medium” value (IGF-II) was “reduced”.
